Results reported in ChEMBL document CHEMBL1201862, “PubChem BioAssay data set” (2004).
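Assay format: 96-well plates, 48-hour exposure. The concentration for 50% growth inhibition is given as GI50.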 Active and inactive are the calls of the source. Cut-off read from the data, not from the text of the source: active = GI50 up to about 1.1 µM and inactive = higher.

Legend:
Assay in all cases: growth of human tumour cells (NCI), 48 h
[1] = tested on: CCRF-CEM
[2] = tested on: UACC-257
[3] = tested on: HOP-62
[4] = tested on: SF-539
[5] = tested on: RPMI-8226
[6] = tested on: NCI-H23
[7] = tested on: SK-MEL-2
[8] = tested on: EKVX
[9] = tested on: MOLT-4
[10] = tested on: SF-268
[11] = tested on: NCI-H522
[12] = tested on: NCI-H460
[13] = tested on: U-251
[14] = tested on: IGROV-1
[15] = tested on: HCT-116
[16] = tested on: LOX IMVI
[17] = tested on: NCI-H226
[18] = tested on: KM12
[19] = tested on: HOP-92
[20] = tested on: BT-549

SMILES | GI50 [1] | GI50 [2] | GI50 [3] | GI50 [4] | GI50 [5] | GI50 [6] | GI50 [7] | GI50 [8] | GI50 [9] | GI50 [10] | GI50 [11] | GI50 [12] | GI50 [13] | GI50 [14] | GI50 [15] | GI50 [16] | GI50 [17] | GI50 [18] | GI50 [19] | GI50 [20]
N#Cc1c(N2CCCC2)nsc1NCc1ccccc1 | > 100 µM (inactive) | > 100 µM (inactive) | > 100 µM (inactive) | > 100 µM (inactive) | > 100 µM (inactive) | > 100 µM (inactive) | > 100 µM (inactive) | > 100 µM (inactive) | > 100 µM (inactive) | > 100 µM (inactive) | > 100 µM (inactive) | > 100 µM (inactive) | > 100 µM (inactive) | > 100 µM (inactive) | > 100 µM (inactive) | > 100 µM (inactive) | > 100 µM (inactive) | > 100 µM (inactive) | 54.1 µM (inactive) | > 100 µM (inactive)
COc1ccc(C2SC(=N)Nc3c2c(C)nn3C(=O)c2ccc(Cl)cc2)cc1OC (stereo not given) | > 10 µM (inactive) | > 10 µM (inactive) | > 10 µM (inactive) | > 10 µM (inactive) | > 10 µM (inactive) | > 10 µM (inactive) | > 10 µM (inactive) | > 10 µM (inactive) | > 10 µM (inactive) | > 10 µM (inactive) | > 10 µM (inactive) | > 10 µM (inactive) | > 10 µM (inactive) | > 10 µM (inactive) | > 10 µM (inactive) | > 10 µM (inactive) | > 10 µM (inactive) | > 10 µM (inactive) | > 10 µM (inactive) | > 10 µM (inactive)
CCCn1c(=O)c2nn3c(=O)n(CCC)c(=O)c3nn2c1=O | > 100 µM (inactive) | > 100 µM (inactive) | > 100 µM (inactive) | > 100 µM (inactive) | > 100 µM (inactive) | > 100 µM (inactive) | > 100 µM (inactive) | > 100 µM (inactive) | > 100 µM (inactive) | > 100 µM (inactive) | > 100 µM (inactive) | > 100 µM (inactive) | > 100 µM (inactive) | > 100 µM (inactive) | > 100 µM (inactive) | > 100 µM (inactive) | > 100 µM (inactive) | > 100 µM (inactive) | > 100 µM (inactive) | > 100 µM (inactive)
Cc1nnc2n1N=C(c1cc(F)c(Cl)cc1Cl)/C(=C/c1ccc3c(c1)OCO3)S2 | 43 µM (inactive) | 71.1 µM (inactive) | 37.1 µM (inactive) | > 100 µM (inactive) | 43.6 µM (inactive) | 90.8 µM (inactive) | 44 µM (inactive) | 23.1 µM (inactive) | 38.1 µM (inactive) | 88.9 µM (inactive) | 20.7 µM (inactive) | > 100 µM (inactive) | 56.6 µM (inactive) | 50.7 µM (inactive) | 47.8 µM (inactive) | 33.1 µM (inactive) | > 100 µM (inactive) | > 100 µM (inactive) | 65.8 µM (inactive) | > 100 µM (inactive)
c1ccc(CN2CCCN3CCN(CCCN(Cc4ccccc4)CC3)CC2)cc1 | 46.9 µM (inactive) | 22 µM (inactive) | > 100 µM (inactive) | 87.7 µM (inactive) | 13 µM (inactive) | 34.1 µM (inactive) | 22.2 µM (inactive) | 41.9 µM (inactive) | 81.3 µM (inactive) | 78.7 µM (inactive) | 36.1 µM (inactive) | 39.4 µM (inactive) | 36.4 µM (inactive) | 60 µM (inactive) | 35.2 µM (inactive) | 51.9 µM (inactive) | 73.6 µM (inactive) | 31.6 µM (inactive) | 92 µM (inactive) | 44.5 µM (inactive)
CC1CCOc2ccc(cc2)/C=N\c2ccc(cc2)CCc2ccc(cc2)/N=C\c2ccc(cc2)OCC1 | 29.8 µM (inactive) | > 100 µM (inactive) | 18.2 µM (inactive) | > 100 µM (inactive) | > 100 µM (inactive) | > 100 µM (inactive) | > 100 µM (inactive) | > 100 µM (inactive) | > 100 µM (inactive) | > 100 µM (inactive) | > 100 µM (inactive) | > 100 µM (inactive) | > 100 µM (inactive) | > 100 µM (inactive) | > 100 µM (inactive) | > 100 µM (inactive) | > 100 µM (inactive) | > 100 µM (inactive) | 60.5 µM (inactive) | > 100 µM (inactive)
O=C(O)CCSC(=S)Nc1ccc([N+](=O)[O-])cc1 | 23.7 µM (inactive) | 22.3 µM (inactive) | > 94.2 µM (inactive) | 39.5 µM (inactive) | 27.3 µM (inactive) | > 66.7 µM (inactive) | > 61.4 µM (inactive) | > 51.4 µM (inactive) | 8.38 µM (inactive) | 34.5 µM (inactive) | > 46.5 µM (inactive) | > 82.6 µM (inactive) | > 56.2 µM (inactive) | 42.9 µM (inactive) | 60.7 µM (inactive) | 31.9 µM (inactive) | > 75.2 µM (inactive) | > 80.2 µM (inactive) | 29.9 µM (inactive) | 36.2 µM (inactive)
CC(Oc1ccccc1Cl)C(=O)NN1C(=O)CC(=O)N(c2ccc(Cl)cc2)C1=S (stereo not given) | < 0.01 µM (active) | 45.1 µM (inactive) | 46.3 µM (inactive) | 75.5 µM (inactive) | 33.2 µM (inactive) | 38 µM (inactive) | 27.9 µM (inactive) | 45.4 µM (inactive) | 27.4 µM (inactive) | 67.1 µM (inactive) | 23.3 µM (inactive) | 39.3 µM (inactive) | 39.4 µM (inactive) | 50.1 µM (inactive) | 32.1 µM (inactive) | 30.8 µM (inactive) | 52.8 µM (inactive) | 47.6 µM (inactive) | 22.6 µM (inactive) | 55.1 µM (inactive)
CCOP(=O)(O)C(Nc1ccc(/N=N/c2ccccc2)cc1)c1cccc(C(Nc2ccc(/N=N/c3ccccc3)cc2)P(=O)(O)OCC)c1 (stereo not given) | 15.5 µM (inactive) | 57 µM (inactive) | 25.3 µM (inactive) | 33.9 µM (inactive) | 23.2 µM (inactive) | 71.1 µM (inactive) | 45.2 µM (inactive) | 57.4 µM (inactive) | 16.7 µM (inactive) | 69.8 µM (inactive) | 20.8 µM (inactive) | 33.3 µM (inactive) | 31.2 µM (inactive) | 56.5 µM (inactive) | 56.6 µM (inactive) | 19.9 µM (inactive) | > 100 µM (inactive) | 32.6 µM (inactive) | 41.4 µM (inactive) | 45.2 µM (inactive)
Nc1ncnc2c1ncn2C1OC(CO)C(O)C(O)C1O (stereo not given) | > 100 µM (inactive) | > 100 µM (inactive) | > 100 µM (inactive) | > 100 µM (inactive) | > 100 µM (inactive) | > 100 µM (inactive) | > 100 µM (inactive) | > 100 µM (inactive) | > 100 µM (inactive) | > 100 µM (inactive) | > 100 µM (inactive) | > 100 µM (inactive) | > 100 µM (inactive) | > 100 µM (inactive) | > 100 µM (inactive) | > 100 µM (inactive) | > 100 µM (inactive) | > 100 µM (inactive) | > 100 µM (inactive) | > 100 µM (inactive)
